Holding throughout (assay): DTP human tumour cell line panel, 48 h
Test [1] relates to SF-295.
Test [2] has as its system SW-620.
For test [3], the system named is CAKI-1.
For test [4], the system named is BT-549.
Test [5] deals with PC-3.
For test [6], the system named is A498.
Test [7] concerns ACHN.
Test [8] deals with M14.
Test [9] relates to UACC-62.
The test system of test [10] is SNB-19.
Test [11] has as its system Hs-578T.
In test [12] the test system is DLD-1.
Test [13] has as its system HCT-15.
For test [14], the system named is MDA-MB-231.
The test system of test [15] is SR.
For test [16], the system named is OVCAR-8.
Test [17] relates to NCI-H522.
The test system of test [18] is HCC 2998.
The subject of test [19] is SNB-75.

Values joined by “and” are separate entries in the source; they are usually repeats but may differ in a detail not shown here. Identical values can stand only once.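 Cells were grown in 96-well plates and exposed to each compound for 48 hours at five concentrations; endpoints were interpolated linearly between bracketing concentrations, or set to the highest concentration if not reached. Abbreviation: GI50, concentration required for 50% inhibition of growth.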 Active and inactive are the calls of the source. Cut-off read from the data, not from the text of the source: active = GI50 up to about 1.1 µM and inactive = higher. Where only a bound is given, the exact number is not on record here.

As usually defined, the GI50 is the concentration giving 50% growth inhibition. For `C=C1C(=O)OC2/C=C(\CO)C(OC(C)=O)CC(O)/C(C)=C/C(OC(=O)C(C)CC)C12` (centres undefined), the GI50 in [1] was > 100 µM (inactive); in [2] it was 11.8 µM (inactive) and 21.5 µM (inactive); in test [3] it was 27.5 µM (inactive) and 24.2 µM (inactive); in test [4], 19.4 µM (inactive); in [5], 39.2 µM (inactive); in test [6] it was 33 µM (inactive) and 28.2 µM (inactive). The GI50 is 26.2 µM (inactive) and 23.7 µM (inactive) in test [7]; 16.7 µM (inactive) and 15.8 µM (inactive) in [8]; 19.4 µM (inactive) and 17.5 µM (inactive) in test [9]; 50.1 µM (inactive) and 75.7 µM (inactive) in test [10]; 36.9 µM (inactive) in test [11]; 12.9 µM (inactive) in [12]. Besides, the GI50 is 38.6 µM and 30.2 µM in test [13]; 17.3 µM (inactive) in [14]; 8 µM (inactive) in test [15]; 21.7 µM (inactive) and 17.7 µM (inactive) in [16]; 4.57 µM (inactive) and 3.4 µM (inactive) in test [17]; 22.4 µM (inactive) and 15.6 µM (inactive) in test [18]. The GI50 in test [19] was 24.3 µM (inactive).
